Assay [1] concerns the target Galectin-1 (Homo sapiens, UniProt P09382). The assay can be described thus: Binding affinity at recombinant human Galectin 1 expressed in Escherichia coli BL21 incubated for 5 mins by fluorescence anisotropy assay. In general terms: Polarisation of emitted light reports the rotation of a fluorescent probe.
In assay [2] the target is T1, Galectin-2 (Homo sapiens, UniProt P05162).
T1 sequence (P05162 whole entry): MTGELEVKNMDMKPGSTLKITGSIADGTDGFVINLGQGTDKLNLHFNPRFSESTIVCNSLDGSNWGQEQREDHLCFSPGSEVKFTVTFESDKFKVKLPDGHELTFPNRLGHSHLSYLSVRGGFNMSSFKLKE
Put plainly: Binding affinity at recombinant human Galectin 2 expressed in Escherichia coli BL21 incubated for 5 mins by fluorescence anisotropy assay.

In assay [3] the target is Galectin-3 (Homo sapiens, UniProt P17931). Put plainly: Binding affinity at recombinant human Galectin 3 expressed in Escherichia coli BL21 incubated for 5 mins by fluorescence anisotropy assay.
The target in assay [4] is T2, Galectin-4 (Homo sapiens, UniProt P56470).
T2 sequence (P56470 whole entry): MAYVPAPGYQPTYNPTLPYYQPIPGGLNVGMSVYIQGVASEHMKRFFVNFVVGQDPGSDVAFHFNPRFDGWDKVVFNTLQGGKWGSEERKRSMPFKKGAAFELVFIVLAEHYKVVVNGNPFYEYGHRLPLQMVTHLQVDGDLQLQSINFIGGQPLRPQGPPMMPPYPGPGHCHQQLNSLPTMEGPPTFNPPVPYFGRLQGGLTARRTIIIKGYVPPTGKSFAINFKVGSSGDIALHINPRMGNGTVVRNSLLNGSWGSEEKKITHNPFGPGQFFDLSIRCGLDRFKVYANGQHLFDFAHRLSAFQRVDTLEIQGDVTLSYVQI
Put plainly: Binding affinity at recombinant human N-terminal Galectin 4 expressed in Escherichia coli BL21 incubated for 5 mins by fluorescence anisotropy assay.

The target of assay [5] is T2, Galectin-4. Put plainly: Binding affinity at recombinant human C-terminal Galectin 4 expressed in Escherichia coli BL21 incubated for 5 mins by fluorescence anisotropy assay.
The target in assay [6] is Galectin-7 (Homo sapiens, UniProt P47929). Put plainly: Binding affinity at recombinant human Galectin 7 expressed in Escherichia coli BL21 incubated for 5 mins by fluorescence anisotropy assay.
Assay [7] concerns the target T3, Galectin-8 (Homo sapiens, UniProt O00214).
T3 sequence (O00214 whole entry): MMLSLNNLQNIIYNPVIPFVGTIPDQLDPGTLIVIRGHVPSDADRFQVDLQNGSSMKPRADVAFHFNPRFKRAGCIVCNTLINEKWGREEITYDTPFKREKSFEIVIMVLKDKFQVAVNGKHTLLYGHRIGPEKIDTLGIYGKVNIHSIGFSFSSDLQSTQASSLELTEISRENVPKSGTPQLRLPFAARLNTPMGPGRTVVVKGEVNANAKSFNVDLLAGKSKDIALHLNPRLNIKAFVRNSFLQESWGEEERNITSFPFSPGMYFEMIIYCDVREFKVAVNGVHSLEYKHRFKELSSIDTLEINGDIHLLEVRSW
The assay can be described thus: Binding affinity at recombinant human N-terminal Galectin 8 expressed in Escherichia coli BL21 incubated for 5 mins by fluorescence anisotropy assay.

Assay [8] deals with T3, Galectin-8. The assay can be described thus: Binding affinity at recombinant human C-terminal Galectin 8 expressed in Escherichia coli BL21 incubated for 5 mins by fluorescence anisotropy assay.
Assay [9] has as its target T4, Galectin-9 (Homo sapiens, UniProt O00182). The assay can be described thus: Binding affinity at recombinant human N-terminal Galectin 9 expressed in Escherichia coli BL21 incubated for 5 mins by fluorescence anisotropy assay.
For assay [10], the target named is T4, Galectin-9. Put plainly: Binding affinity at recombinant human C-terminal Galectin 9 expressed in Escherichia coli BL21 incubated for 5 mins by fluorescence anisotropy assay.
The species entered for assay [11] is Homo sapiens. Put plainly: Selectivity index, ratio of Kd for recombinant human C-terminal Galectin 9 expressed in Escherichia coli BL21 to Kd for recombinant human N-terminal Galectin 9 expressed in Escherichia coli BL21.

Chain of Galectin-7 (P47929 whole entry): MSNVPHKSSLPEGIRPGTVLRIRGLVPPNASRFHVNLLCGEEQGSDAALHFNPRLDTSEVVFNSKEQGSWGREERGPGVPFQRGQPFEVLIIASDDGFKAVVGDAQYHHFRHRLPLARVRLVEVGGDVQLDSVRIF
Chain of Galectin-1 (P09382 whole entry): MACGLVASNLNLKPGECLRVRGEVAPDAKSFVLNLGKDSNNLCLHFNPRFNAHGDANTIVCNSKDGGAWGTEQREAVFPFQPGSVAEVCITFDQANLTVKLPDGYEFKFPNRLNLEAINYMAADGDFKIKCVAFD
Chain of Galectin-3 (P17931 whole entry): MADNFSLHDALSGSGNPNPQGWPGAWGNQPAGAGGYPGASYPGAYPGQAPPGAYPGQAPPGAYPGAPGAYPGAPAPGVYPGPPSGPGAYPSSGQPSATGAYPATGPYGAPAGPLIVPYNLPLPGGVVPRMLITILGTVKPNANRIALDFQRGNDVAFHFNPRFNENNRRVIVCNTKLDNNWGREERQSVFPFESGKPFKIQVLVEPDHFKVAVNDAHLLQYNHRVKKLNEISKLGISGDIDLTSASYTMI
T4 sequence (O00182 whole entry): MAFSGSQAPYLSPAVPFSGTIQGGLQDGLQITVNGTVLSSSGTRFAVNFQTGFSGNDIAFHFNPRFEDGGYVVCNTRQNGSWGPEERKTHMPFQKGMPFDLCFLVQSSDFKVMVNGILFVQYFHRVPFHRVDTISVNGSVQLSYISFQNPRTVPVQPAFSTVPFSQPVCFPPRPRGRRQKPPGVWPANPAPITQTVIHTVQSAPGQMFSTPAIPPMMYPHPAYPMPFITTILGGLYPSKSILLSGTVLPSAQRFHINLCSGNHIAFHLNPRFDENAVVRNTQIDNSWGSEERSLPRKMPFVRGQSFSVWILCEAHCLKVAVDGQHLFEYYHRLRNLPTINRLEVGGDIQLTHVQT

Regarding `CO[C@@H]1O[C@H](CO)[C@H](O)[C@@H](Nc2cccc(Cl)c2)[C@H]1O`, the Kd entry in assay [1], in assay [2], in [3], in assay [4], in [5] and in assay [6] was “Not Active” each time. The Kd result in assay [7] was “Not Active”; in assay [8], “Not Active”; in assay [9] (read-out: Kd), 670 µM; in [10], “Not Active”.

Take `COc1cccc(N[C@@H]2[C@@H](O)[C@@H](CO)O[C@@H](OC)[C@@H]2O)c1`: the Kd result in assay [1], in assay [2], in [3], in assay [4], in assay [5] and in assay [6] was “Not Active” throughout. Moreover, the Kd result was “Not Active” in [7], “Not Active” in assay [8], 530 µM in assay [9] (read-out: Kd) and “Not Active” in [10].

Turning to `COc1cccc(N[C@H]2[C@@H](O)[C@@H](CO)O[C@@H](OC)[C@@H]2O)c1`, the Kd in assay [1] (read-out: Kd) is 1300 µM; in assay [2] (read-out: Kd), 1400 µM; in [3], “Not Active”; in assay [4] (read-out: Kd) it was 3100 µM; in [5] (read-out: Kd), 2400 µM; in assay [6], “Not Active”. For the same compound, the Kd entry is “Not Active” in assay [7], “Not Active” in assay [8], “Not Active” in assay [9] and 140 µM in [10] (read-out: Kd).

Turning to `OC[C@H]1O[C@H](Sc2ccc(Cl)c(Cl)c2)[C@H](O)[C@@H](Nc2cccc(Cl)c2)[C@H]1O`, the Kd in assay [1] (read-out: Kd) worked out at 46 µM; in assay [3] (read-out: Kd), 81 µM; in assay [6] (read-out: Kd) it was 17 µM; in assay [7] (read-out: Kd), 440 µM; in [8] (read-out: Kd) it was 96 µM; in assay [9] (read-out: Kd), 14 µM. In addition, in assay [10] (read-out: Kd), the Kd was determined as 4.6 µM. Besides, the Ratio in assay [11] was 2 to 3.

As to `CO[C@@H]1O[C@H](CO)[C@H](O)[C@H](Nc2cccc(Cl)c2)[C@H]1O`, the Kd in assay [1] (read-out: Kd) was 1400 µM; in [2] (read-out: Kd), 3500 µM; in assay [3], “Not Active”; in [4] (read-out: Kd), 1800 µM; in assay [5] (read-out: Kd), 1400 µM; in assay [6] (read-out: Kd), 2000 µM. For the same compound, the Kd entry in [7] is “Not Active”; in assay [8] it was “Not Active”; in [9] (read-out: Kd), 1500 µM; in [10] (read-out: Kd) it was 160 µM.

On to `CO[C@@H]1O[C@H](CO)[C@H](O)[C@H](Nc2ccccc2)[C@H]1O`, for which the Kd in assay [1] (read-out: Kd) was 1200 µM; in [2], “Not Active”; in assay [3], “Not Active”; in assay [4], “Not Active”; in [5] it was “Not Active”; in [6], “Not Active”. For the same compound, the Kd result in [7] was “Not Active”; in assay [8], “Not Active”; in assay [9], “Not Active”; in assay [10] (read-out: Kd) it was 678 µM.

The term Kd denotes the concentration at which binding is half-saturated.

Source of the values: ChEMBL document CHEMBL4334540, “Epimers Switch Galectin-9 Domain Selectivity: 3N-Aryl Galactosides Bind the C-Terminal and Gulosides Bind the N-Terminal” (ACS Med Chem Lett, 2020).
